Reference: paper PMC5061470, “Promiscuous targeting of bromodomains by bromosporine identifies BET proteins as master regulators of primary transcription response in leukemia” (Science Advances, 2016)
Substitutions are numbered along the chain they refer to.

Experiments:
K562 = format: cell-based, human
H3 (h) = H3 (h) (Homo sapiens, UniProt Q9Y5N1); assay: biochemical; settings: read-out: % Inhibition of Control Specific Binding
H1 (h) = H1 (h) (Homo sapiens, UniProt P35367); assay: biochemical; settings: read-out: % Inhibition of Control Specific Binding
TAF1L(2) = molecular target: T1, TAF1L(2) (Homo sapiens, UniProt Q8IZX4); format: binding
T1 construct: the second BRD of TAF1L [TAF1L(2); S2E]; made in house; host or cells: bacteria
T1 sequence (Q8IZX4 1517-1626 limits assumed): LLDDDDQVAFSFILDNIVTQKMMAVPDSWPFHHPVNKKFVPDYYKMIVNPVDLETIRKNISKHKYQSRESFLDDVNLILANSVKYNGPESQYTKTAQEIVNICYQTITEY

PB1(5) = molecular target: T2, PB1(5) (Homo sapiens, UniProt Q86U86); format: binding
T2 construct: Human BRDs were subcloned into bacteria-expressing vectors; made in house; host or cells: bacteria

CCR2 (h) = CCR2 (h) (Homo sapiens, UniProt P41597); assay: CEREP binding, agonist radioligand; settings: read-out: % Inhibition of Control Specific Binding
D3 (h) = D3 (h) (Homo sapiens, UniProt P35462); assay: biochemical; settings: read-out: % Inhibition of Control Specific Binding
5-HT1D = 5-HT1D (Rattus norvegicus, UniProt P28565); assay: biochemical; settings: read-out: % Inhibition of Control Specific Binding
[1] = molecular target: full-length GFP-tagged BRD9 in U2OS cells (Homo sapiens, UniProt Q9H8M2); format: cell-based
CB1 (h) = CB1 (h) (Homo sapiens, UniProt P21554); assay: biochemical; settings: read-out: % Inhibition of Control Specific Binding
alpha 1B (h) = alpha 1B (h) (Homo sapiens, UniProt P35368); assay: biochemical; settings: read-out: % Inhibition of Control Specific Binding
MT1 (ML1A) (h) = MT1 (ML1A) (h) (Homo sapiens, UniProt P48039); assay: biochemical; settings: read-out: % Inhibition of Control Specific Binding
5-HT1B = 5-HT1B (Rattus norvegicus, UniProt P28564); assay: biochemical; settings: read-out: % Inhibition of Control Specific Binding
EP2 (h) = EP2 (h) (Homo sapiens, UniProt P43116); assay: biochemical; settings: read-out: % Inhibition of Control Specific Binding
[2] = molecular target: full-length GFP-tagged BRD4 in U2OS cells (Homo sapiens, UniProt O60885); format: cell-based
A1 (h) = A1 (h) (Homo sapiens, UniProt P30542); assay: biochemical; settings: read-out: % Inhibition of Control Specific Binding
TAF1(2) = molecular target: T3, TAF1(2) (Homo sapiens, UniProt P21675); format: binding
T3 construct: Human BRDs were subcloned into bacteria-expressing vectors; made in house; host or cells: bacteria
T3 sequence (P21675 1519-1628 limits assumed): T1 sequence (Q8IZX4 1517-1626 limits assumed) with M46V, V51M, I102V, I107L

NCI-60 tumor cell lines = format: cell-based, human
BRD4(2) = BRD4(2) (Homo sapiens, UniProt O60885)
MCH1 (h) = MCH1 (h) (Homo sapiens, UniProt Q99705); assay: biochemical; settings: read-out: % Inhibition of Control Specific Binding
UT (h) = UT (h) (Homo sapiens, UniProt Q9UKP6); assay: biochemical; settings: read-out: % Inhibition of Control Specific Binding
5-HT7 (h) = 5-HT7 (h) (Homo sapiens, UniProt P34969); assay: biochemical; settings: read-out: % Inhibition of Control Specific Binding
TR (TH) = format: binding
TNF-alpha (h) = assay: CEREP binding, agonist radioligand; parameters: species or system human
KASUMI-1 = assay: cells; format: cell-based, human; settings: Homo sapiens, Kasumi 1, 72 h, read-out: IC50, cell proliferation
NK1 (h) = NK1 (h) (Homo sapiens, UniProt P25103); assay: biochemical; settings: read-out: % Inhibition of Control Specific Binding
A2B (h) = A2B (h) (Homo sapiens, UniProt P29275); assay: biochemical; settings: read-out: % Inhibition of Control Specific Binding
BRD2(2) = BRD2(2) (Homo sapiens, UniProt P25440)
BB3 (h) = BB3 (h) (Homo sapiens, UniProt P32247); assay: biochemical; settings: read-out: % Inhibition of Control Specific Binding
[3] = test system: sigma (non-selective) (h)
CB2 (h) = CB2 (h) (Homo sapiens, UniProt P34972); assay: biochemical; settings: read-out: % Inhibition of Control Specific Binding
Y1 (h) = Y1 (h) (Homo sapiens, UniProt P25929); assay: biochemical; settings: read-out: % Inhibition of Control Specific Binding
AT2 (h) = AT2 (h) (Homo sapiens, UniProt P50052); assay: biochemical; settings: read-out: % Inhibition of Control Specific Binding
ETA (h) = ETA (h) (Homo sapiens, UniProt P25101); assay: biochemical; settings: read-out: % Inhibition of Control Specific Binding
NK2 (h) = NK2 (h) (Homo sapiens, UniProt P21452); assay: biochemical; settings: read-out: % Inhibition of Control Specific Binding
[4] = molecular target: norepinephrine transporter (h) (Homo sapiens, UniProt P23975); assay: biochemical; settings: read-out: % Inhibition of Control Specific Binding

T2 sequence (Q86U86 653-763 limits assumed): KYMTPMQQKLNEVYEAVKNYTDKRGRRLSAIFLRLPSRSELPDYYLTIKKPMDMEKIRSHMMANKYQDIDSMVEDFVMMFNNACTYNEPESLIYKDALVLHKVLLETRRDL
Chain of BRD2(2) (P25440 344-453 limits assumed): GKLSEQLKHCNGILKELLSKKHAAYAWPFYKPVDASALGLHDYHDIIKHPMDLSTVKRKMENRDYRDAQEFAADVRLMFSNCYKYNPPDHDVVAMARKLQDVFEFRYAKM
Chain of A2B (h) (P29275 whole entry): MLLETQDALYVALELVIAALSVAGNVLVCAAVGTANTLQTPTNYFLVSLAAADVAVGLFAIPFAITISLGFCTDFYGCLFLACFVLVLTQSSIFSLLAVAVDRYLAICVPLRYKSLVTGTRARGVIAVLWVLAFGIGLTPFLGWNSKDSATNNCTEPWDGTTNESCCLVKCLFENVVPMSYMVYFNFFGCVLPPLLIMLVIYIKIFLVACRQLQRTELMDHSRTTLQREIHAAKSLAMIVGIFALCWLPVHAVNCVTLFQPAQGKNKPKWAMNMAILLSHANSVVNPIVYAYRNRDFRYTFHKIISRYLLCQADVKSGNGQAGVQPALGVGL
Chain of full-length GFP-tagged BRD9 in U2OS cells (Q9H8M2 whole entry): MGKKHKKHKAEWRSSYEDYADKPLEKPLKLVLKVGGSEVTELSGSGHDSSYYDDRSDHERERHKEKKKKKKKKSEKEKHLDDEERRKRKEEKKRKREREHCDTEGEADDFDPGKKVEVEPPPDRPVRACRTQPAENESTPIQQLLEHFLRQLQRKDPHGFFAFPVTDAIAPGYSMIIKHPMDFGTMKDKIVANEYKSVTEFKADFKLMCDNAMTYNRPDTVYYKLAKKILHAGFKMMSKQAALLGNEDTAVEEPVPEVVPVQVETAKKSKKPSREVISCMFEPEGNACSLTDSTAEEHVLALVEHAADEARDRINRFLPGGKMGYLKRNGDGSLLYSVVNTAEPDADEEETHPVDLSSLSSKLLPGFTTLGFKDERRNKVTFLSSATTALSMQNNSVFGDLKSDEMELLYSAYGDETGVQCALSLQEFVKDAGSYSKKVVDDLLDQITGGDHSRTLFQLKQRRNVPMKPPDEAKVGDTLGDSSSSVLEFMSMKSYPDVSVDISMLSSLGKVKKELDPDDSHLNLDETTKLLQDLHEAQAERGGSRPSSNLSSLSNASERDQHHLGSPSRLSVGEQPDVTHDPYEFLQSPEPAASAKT
Chain of AT2 (h) (P50052 whole entry): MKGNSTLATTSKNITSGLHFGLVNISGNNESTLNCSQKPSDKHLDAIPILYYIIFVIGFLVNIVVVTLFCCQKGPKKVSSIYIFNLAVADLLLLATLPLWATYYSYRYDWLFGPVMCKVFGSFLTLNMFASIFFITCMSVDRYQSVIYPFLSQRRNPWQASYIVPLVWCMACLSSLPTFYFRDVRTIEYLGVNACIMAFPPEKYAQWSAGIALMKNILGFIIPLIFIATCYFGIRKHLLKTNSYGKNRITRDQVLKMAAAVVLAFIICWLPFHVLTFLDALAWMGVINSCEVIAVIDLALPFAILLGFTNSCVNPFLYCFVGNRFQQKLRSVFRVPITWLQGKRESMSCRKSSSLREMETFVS
Chain of 5-HT1B (P28564 whole entry): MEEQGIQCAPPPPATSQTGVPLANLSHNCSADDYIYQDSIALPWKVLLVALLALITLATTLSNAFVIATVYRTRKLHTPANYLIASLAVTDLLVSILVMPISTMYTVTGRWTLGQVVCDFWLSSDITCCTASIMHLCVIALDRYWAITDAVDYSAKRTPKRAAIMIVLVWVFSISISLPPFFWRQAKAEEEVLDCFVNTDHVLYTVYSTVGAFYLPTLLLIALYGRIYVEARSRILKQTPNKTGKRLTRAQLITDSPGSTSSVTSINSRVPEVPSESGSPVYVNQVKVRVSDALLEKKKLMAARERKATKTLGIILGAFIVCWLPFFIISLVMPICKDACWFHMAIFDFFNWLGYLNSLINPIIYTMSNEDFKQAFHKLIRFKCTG
Chain of CCR2 (h) (P41597 whole entry): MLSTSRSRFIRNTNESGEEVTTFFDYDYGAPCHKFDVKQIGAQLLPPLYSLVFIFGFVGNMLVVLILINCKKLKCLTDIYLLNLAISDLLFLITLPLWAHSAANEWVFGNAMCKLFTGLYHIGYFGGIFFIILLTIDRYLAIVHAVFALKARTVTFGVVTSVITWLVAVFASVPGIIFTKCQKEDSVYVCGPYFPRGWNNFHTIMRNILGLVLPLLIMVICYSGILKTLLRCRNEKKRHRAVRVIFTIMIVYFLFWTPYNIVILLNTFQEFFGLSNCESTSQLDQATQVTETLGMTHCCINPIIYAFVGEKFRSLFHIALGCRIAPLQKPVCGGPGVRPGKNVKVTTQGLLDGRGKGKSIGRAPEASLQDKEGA
Chain of ETA (h) (P25101 21-427): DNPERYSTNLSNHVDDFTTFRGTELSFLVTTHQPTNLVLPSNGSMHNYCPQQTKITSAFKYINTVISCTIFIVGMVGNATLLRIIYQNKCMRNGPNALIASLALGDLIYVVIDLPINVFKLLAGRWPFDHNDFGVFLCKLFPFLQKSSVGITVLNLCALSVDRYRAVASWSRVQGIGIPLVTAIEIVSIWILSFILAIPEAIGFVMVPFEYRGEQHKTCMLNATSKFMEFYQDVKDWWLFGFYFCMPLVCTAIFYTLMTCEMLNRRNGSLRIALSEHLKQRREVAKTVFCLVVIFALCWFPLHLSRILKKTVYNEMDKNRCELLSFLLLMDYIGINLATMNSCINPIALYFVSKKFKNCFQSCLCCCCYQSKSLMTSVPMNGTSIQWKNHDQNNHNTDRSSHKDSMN
Chain of Y1 (h) (P25929 whole entry): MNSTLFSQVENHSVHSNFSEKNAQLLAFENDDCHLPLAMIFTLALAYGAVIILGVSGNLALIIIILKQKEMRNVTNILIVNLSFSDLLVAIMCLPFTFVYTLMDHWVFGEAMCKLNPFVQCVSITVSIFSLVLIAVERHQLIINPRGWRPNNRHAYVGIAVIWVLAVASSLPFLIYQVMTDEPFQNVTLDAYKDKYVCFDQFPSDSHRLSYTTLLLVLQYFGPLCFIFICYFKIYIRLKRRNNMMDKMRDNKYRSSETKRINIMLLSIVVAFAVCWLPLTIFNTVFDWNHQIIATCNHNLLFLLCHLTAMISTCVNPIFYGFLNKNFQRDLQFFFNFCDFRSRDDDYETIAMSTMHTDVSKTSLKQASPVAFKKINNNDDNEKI
Chain of H3 (h) (Q9Y5N1 whole entry): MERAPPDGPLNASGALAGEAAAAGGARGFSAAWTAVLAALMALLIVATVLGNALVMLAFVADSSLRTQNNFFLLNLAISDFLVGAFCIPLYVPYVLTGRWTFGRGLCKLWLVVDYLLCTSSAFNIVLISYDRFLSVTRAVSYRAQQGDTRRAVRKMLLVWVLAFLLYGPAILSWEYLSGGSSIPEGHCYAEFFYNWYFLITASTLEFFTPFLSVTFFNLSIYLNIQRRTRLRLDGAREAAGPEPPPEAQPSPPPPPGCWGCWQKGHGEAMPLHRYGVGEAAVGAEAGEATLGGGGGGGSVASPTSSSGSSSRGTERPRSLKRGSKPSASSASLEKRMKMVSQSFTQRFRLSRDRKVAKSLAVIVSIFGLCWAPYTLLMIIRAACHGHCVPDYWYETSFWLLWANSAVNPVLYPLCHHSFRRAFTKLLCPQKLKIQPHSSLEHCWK
Chain of UT (h) (Q9UKP6 whole entry): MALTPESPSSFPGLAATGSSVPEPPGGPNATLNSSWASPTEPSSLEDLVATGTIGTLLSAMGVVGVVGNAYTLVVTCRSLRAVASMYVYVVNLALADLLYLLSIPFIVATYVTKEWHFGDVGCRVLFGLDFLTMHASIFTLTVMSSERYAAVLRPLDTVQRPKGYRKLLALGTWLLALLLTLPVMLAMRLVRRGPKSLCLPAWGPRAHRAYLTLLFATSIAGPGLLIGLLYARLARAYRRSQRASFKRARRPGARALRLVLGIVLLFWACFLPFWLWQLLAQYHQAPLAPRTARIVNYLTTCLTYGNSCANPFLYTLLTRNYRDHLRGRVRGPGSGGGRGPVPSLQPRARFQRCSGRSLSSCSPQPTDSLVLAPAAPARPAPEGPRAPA
Chain of NK1 (h) (P25103 whole entry): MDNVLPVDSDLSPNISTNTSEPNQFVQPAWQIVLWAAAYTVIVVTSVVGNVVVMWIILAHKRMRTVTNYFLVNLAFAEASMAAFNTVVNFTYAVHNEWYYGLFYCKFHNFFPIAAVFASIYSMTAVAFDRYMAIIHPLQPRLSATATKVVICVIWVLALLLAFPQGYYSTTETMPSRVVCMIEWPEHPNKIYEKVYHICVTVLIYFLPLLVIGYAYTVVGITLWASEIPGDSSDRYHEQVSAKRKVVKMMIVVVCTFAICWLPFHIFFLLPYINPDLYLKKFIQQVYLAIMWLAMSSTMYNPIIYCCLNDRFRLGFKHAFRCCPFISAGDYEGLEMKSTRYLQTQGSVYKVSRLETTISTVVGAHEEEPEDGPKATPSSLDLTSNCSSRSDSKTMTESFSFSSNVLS
Chain of alpha 1B (h) (P35368 whole entry): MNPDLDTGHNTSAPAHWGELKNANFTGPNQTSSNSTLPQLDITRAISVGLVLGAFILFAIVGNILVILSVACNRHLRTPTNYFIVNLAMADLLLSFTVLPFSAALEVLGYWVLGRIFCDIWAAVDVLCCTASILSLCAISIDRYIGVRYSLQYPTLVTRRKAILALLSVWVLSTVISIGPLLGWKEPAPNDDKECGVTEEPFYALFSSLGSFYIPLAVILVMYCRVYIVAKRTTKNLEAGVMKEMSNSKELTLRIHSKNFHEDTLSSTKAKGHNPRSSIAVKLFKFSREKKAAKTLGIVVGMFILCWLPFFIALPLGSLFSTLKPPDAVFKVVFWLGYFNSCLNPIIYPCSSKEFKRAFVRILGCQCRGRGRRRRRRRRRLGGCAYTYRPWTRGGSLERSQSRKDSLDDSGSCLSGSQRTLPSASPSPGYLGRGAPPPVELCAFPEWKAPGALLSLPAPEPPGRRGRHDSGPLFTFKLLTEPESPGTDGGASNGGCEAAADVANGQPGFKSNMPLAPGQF

CCOC(=O)Nc1cc(-c2ccc(C)c(NS(C)(=O)=O)c2)nn2c(C)nnc12 [BSP, ethyl (3-methyl-6-(4-methyl-3-(methylsulfonamido)phenyl)-[1,2,4]triazolo[4,3-b]pyridazin-8-yl)carbamate]
effect on cell proliferation (K562): No significant effect
inhibition at 10 µM (H3 (h)): 1%
inhibition at 10 µM (H1 (h)): 1%
N (TAF1L(2)): 0.99 ± 0.003
TΔS (TAF1L(2)): -2.76 kcal/mol
ΔG (TAF1L(2)): -9.72 kcal/mol
ΔH^obs (TAF1L(2)): -12.48 ± 0.069 kcal/mol
N (PB1(5)): 1.09 ± 0.053
TΔS (PB1(5)): 3.20 kcal/mol
ΔG (PB1(5)): -6.39 kcal/mol
ΔH^obs (PB1(5)): -3.19 ± 0.183 kcal/mol
inhibition at 10 µM (CCR2 (h)): -8%
inhibition at 10 µM (D3 (h)): -2%
inhibition at 10 µM (5-HT1D): 4%
FRAP, chromatin interaction of BRD9 [1]: displacement of proteins from chromatin
inhibition at 10 µM (CB1 (h)): -34%
inhibition at 10 µM (alpha 1B (h)): 3%
inhibition at 10 µM (MT1 (ML1A) (h)): 14%
inhibition at 10 µM (5-HT1B): -13%
inhibition at 10 µM (EP2 (h)): 16%
FRAP, chromatin interaction of BRD4 [2]: displacement of proteins from chromatin
inhibition at 10 µM (A1 (h)): 30%
N (TAF1(2)): 0.98 ± 0.003
TΔS (TAF1(2)): -3.80 kcal/mol
ΔG (TAF1(2)): -10.25 kcal/mol
ΔH^obs (TAF1(2)): -14.05 ± 0.095 kcal/mol
growth inhibition (NCI-60 tumor cell lines): strong growth inhibition
N (BRD4(2)): 0.94 ± 0.001
TΔS (BRD4(2)): 3.17 kcal/mol
ΔG (BRD4(2)): -9.77 kcal/mol
ΔH^obs (BRD4(2)): -6.60 ± 0.018 kcal/mol
inhibition at 10 µM (MCH1 (h)): 17%
inhibition at 10 µM (UT (h)): -9%
inhibition at 10 µM (5-HT7 (h)): 7%
% Inhibition of Control Specific Binding (TR (TH)): 11
% Inhibition of Control Specific Binding (TNF-alpha (h)): -7
IC50 (KASUMI-1): 0.207 µM
inhibition at 10 µM (NK1 (h)): 7%
inhibition at 10 µM (A2B (h)): -5%
N (BRD2(2)): 1.10 ± 0.003
TΔS (BRD2(2)): 4.18 kcal/mol
ΔG (BRD2(2)): -9.64 kcal/mol
ΔH^obs (BRD2(2)): -5.46 ± 0.028 kcal/mol
inhibition at 10 µM (BB3 (h)): 7%
% Inhibition of Control Specific Binding (AMPA): 11
% Inhibition of Control Specific Binding [3]: -13
inhibition at 10 µM (CB2 (h)): 12%
inhibition at 10 µM (Y1 (h)): -10%
inhibition at 10 µM (AT2 (h)): 2%
inhibition at 10 µM (ETA (h)): -1%
inhibition at 10 µM (NK2 (h)): 6%
inhibition at 10 µM [4]: -20%
